Earlier results in patent US20100173012A1 (priority 2008, published 2010).

Tested on: Fusarium graminearum
Details: previous work of the inventors

For `O=C(O)CN(CC(=O)O)c1ccccc1OCCOc1ccccc1N(CC(=O)O)CC(=O)O` [BAPTA], which “use to reduce ascospore discharge in F. graminearum” value (from here on “use to reduce ascospore discharge”) is on record?
The value was “successfully used”.

For `CCN(CC)CCCCCCCCOC(=O)c1cc(OC)c(OC)c(OC)c1` [TMB8], which “use to reduce ascospore discharge” value is on record?
Its value is “successfully used”.

With `Cc1ccc(S(=O)(=O)NC(=O)NN2CCCCCC2)cc1` [Tolazamide] as the molecule, how does the “use to reduce ascospore discharge” value read?
The value was “successfully used”.

For `COc1ccc(Cl)cc1C(=O)NCCc1ccc(S(=O)(=O)NC(=O)NC2CCCCC2)cc1` [glyburide], which “use to reduce ascospore discharge” value is on record?
The value was “successfully used”.

For `OCC(O)CO` [glycerol], which “use to reduce ascospore discharge” value is on record?
The value was “successfully used”.

Which “use to reduce ascospore discharge” value does the source give for `OC[C@@H](O)[C@@H](O)[C@H](O)[C@H](O)CO` [mannitol] here?
The value was “successfully used”.

For `COc1ccc(CCN(C)CCCC(C#N)(c2ccc(OC)c(OC)c2)C(C)C)cc1OC` (stereo not shown) [verapamil], which “use to reduce ascospore discharge” value is on record?
The value was “successfully used”.
